Reference: US11434227B2, “Broad spectrum antibacterial activity of novel bisbenzimidazoles targeting topoisomerase IA and the synergistic composition of bisbenzimidazole with efflux pump inhibitors against pathogenic bacteria” (Jawaharlal Nehru University (JNU), priority 2016, dated 2022)
Values after ≈ are worked out from the molar mass of the structure shown.

Key:
[1] = tested on: Klebsiella planticola (K589); test: Susceptibility (MIC50/MIC90), broth microdilution
Description: (§1) MICs were determined by the broth microdilution method according to CLSI methods (Clinical and Laboratory Standards Institute, 2005). Inoculants were incubated at 37° C. on cation adjusted Mueller Hinton (MH) Broth for 18 to 24 h. Compound were dissolved in media to 10 doubling dilutions from 128 to 0.125 μg/mL. All the bacterial strains were grown in 96 well plate with low evaporation lid (Falcon, Becton Dickinson) in presence of derivatives of benzimidazoles at 0.125, 0.25, 0.5, 1, 2, 4, 8, 16, 32, 64, 128, 256 μg/mL concentrations. […] Plates were read by Tecan Micro-plate Reader at 600 nm.

[2] = tested on: Staphylococcus sp. (982); test: Susceptibility (MIC50/MIC90), broth microdilution
Description: as §1

[3] = tested on: E. coli DH5α; test: Susceptibility (MIC, PAE, MBC), broth microdilution; settings: Escherichia coli
Description: as §1

[4] = tested on: E. coli 132^R; test: as above; settings: Escherichia coli
Description: as §1

[5] = tested on: K. planticola (MTCC 2272); test: HN12b in combination with efflux pump inhibitors (CB method, FICI)
Description: (§2) 96-well microtiter plates containing MIC25 concentrations of the Efflux pump inhibitor (CCCP, PAβN) and HN12b antimicrobial drugs alone and in CB combination were used. The MICs of the individual drugs HN12b, PAβN and CCCP (0.25 to 128 μg/ml) and of the combinations were determined using the broth microdilution technique as recommended by the CLSI. Briefly, the broth microdilution plates were inoculated with each test organism to yield the appropriate density (10^5 CFU/ml) in 100 μl Mueller-Hinton broth (MHB) and incubated for 24 h at 37° C. in ambient air. One well with no antibiotic was used as a positive growth control on each plate. Plates were read for visual turbidity, and results were recorded after 24 h of incubation at 37° C. in ambient air by using a magnifying mirror reader, as turbidity in wells indicated growth of the microorganism. The MIC was determined as the well in the microtiter plate with the lowest drug concentration at which there was no visible growth. […] MICAB was defined as the MIC of drug A in the presence of drug B; MICBA was defined as the MIC of drug B in the presence of drug A.
(§3) The fractional inhibitory concentration index (FICI) was calculated for each antibiotic in each combination by using the following formula: FICA+FICB=FICI, where FICA equals the MIC of drug A in combination divided by the MIC of drug A alone and FICB equals the MIC of drug B in combination divided by the MIC of drug B alone. The FICIs were interpreted as follows: FICI of ≤0.5 will correspond to synergy; FICI of >0.5 to ≤1 will correspond to additivity; FICI of >1 to ≤4 will correspond to no interaction (indifference), and FICI of >4 will correspond antagonism.

[6] = tested on: Providencia sp. (P592); test: as above
Description: as §2, §3

[7] = tested on: Pseudomonas aeruginosa (MTCC1688); test: Susceptibility (MIC50/MIC90), broth microdilution
Description: as §1

[8] = tested on: E. coli 555^R; test: Susceptibility (MIC, PAE, MBC), broth microdilution; settings: Escherichia coli
Description: as §1

[9] = tested on: A. baumannii (MTCC1920); test: HN12b in combination with efflux pump inhibitors (CB method, FICI)
Description: as §2, §3

[10] = tested on: Enterococcus sp.(1150); test: Susceptibility (MIC50/MIC90), broth microdilution
Description: as §1

[11] = tested on: Enterococcus sp. (1365); test: Susceptibility (MIC50/MIC90), broth microdilution
Description: as §1

[12] = tested on: E. coli 360^R; test: Susceptibility (MIC, PAE, MBC), broth microdilution; settings: Escherichia coli
Description: as §1

[13] = tested on: E. coli 59^R; test: as above; settings: Escherichia coli
Description: as §1

[14] = tested on: Klebsiella planticola (K235); test: Susceptibility (MIC50/MIC90), broth microdilution
Description: as §1

[15] = tested on: E. coli K12 mutant ΔacrA; test: Susceptibility of E. coli K12 and mutants (MIC90); settings: Escherichia coli
Description: as §1

[16] = tested on: Enterococcus sp. (2105); test: HN12b in combination with efflux pump inhibitors (CB method, FICI)
Description: as §2, §3

[17] = tested on: Enterococcus sp. (1367); test: Susceptibility (MIC50/MIC90), broth microdilution
Description: as §1

[18] = tested on: isogenic efflux deleted strains; test: Susceptibility of isogenic efflux deleted strains versus wild type; format: cell-based, Escherichia coli; settings: in comparison to wild type strains
[19] = K. planticola (MTCC 2272), HN12b + CCCP
[20] = Providencia sp. (P592), HN12b + PAβN
[21] = A. baumannii (MTCC1920), HN12b + CCCP
[22] = Enterococcus sp. (2105), HN12b + CCCP

For `CCCN1CCN(c2nc3ccc(-c4nc5ccccc5[nH]4)cc3[nH]2)CC1` [HN12b, 2′-(4-propylpiperazine-1-yl)-1H, 3′H-2,5′-bibenzimidazole], the MIC50 [1] was 7.4 µg/mL (≈ 20.5 µM), the MIC90 [1] was 97.4 µg/mL (≈ 270 µM) and the MIC50 [2] was 0.44 µg/mL (≈ 1.22 µM). The MIC90 [2] was 7.44 µg/mL (≈ 20.6 µM), the MBC [3] was 0.8 µg/mL (≈ 2.22 µM) and the MIC50 [3] was 0.2 µg/mL (≈ 0.555 µM). For the same molecule, the MIC90 [3] was 0.2 µg/mL (≈ 0.555 µM), the MBC [4] was 4 µg/mL (≈ 11.1 µM) and the MIC50 [4] was 2 µg/mL (≈ 5.55 µM). The MIC90 [4] was 3.5 µg/mL (≈ 9.71 µM), the FICI [5, 19] was 0.5 and the Interpretation [5, 19] was “Synergy (FICI of ≤0.5 will correspond to synergy)”. The FICI ([5]; K. planticola (MTCC 2272), HN12b + PAβN) was 1, the MIC90 ([5]; Klebsiella planticola, MTCC2272) was over 128 µg/mL and the MIC90 ([6]; Providencia) was 58 µg/mL. For the same molecule, the FICI ([6]; Providencia sp. (P592), HN12b + CCCP) was 0.6, the FICI [6, 20] was 0.4 and the Interpretation [6, 20] was “Synergy (FICI of ≤0.5 will correspond to synergy)”. The MIC50 [7] was over 128 µg/mL, the MIC90 [7] was 128 µg/mL (≈ 355 µM) and the MBC [8] was 8 µg/mL (≈ 22.2 µM). The MIC50 [8] was 4 µg/mL (≈ 11.1 µM), the MIC90 [8] was 6.8 µg/mL (≈ 18.9 µM) and the FICI [9, 21] was 0.5. The Interpretation [9, 21] was “Synergy (FICI of ≤0.5 will correspond to synergy)”, the FICI ([9]; A. baumannii (MTCC1920), HN12b + PAβN) was 0.9 and the MIC90 ([9]; Acinetobacter baumannii, MTCC1920) was over 128 µg/mL. It also gave an MIC50 [10] of 0.25 µg/mL (≈ 0.694 µM), an MIC90 [10] of 13.2 µg/mL (≈ 36.8 µM) and an MIC50 [11] of 0.25 µg/mL (≈ 0.694 µM). For the same molecule, the MIC90 [11] was 11.2 µg/mL (≈ 31.2 µM), the MBC [12] was 2 µg/mL (≈ 5.55 µM) and the MIC50 [12] was 1 µg/mL (≈ 2.77 µM). It also gave an MIC90 [12] of 1.6 µg/mL (≈ 4.44 µM), an MBC [13] of 4 µg/mL (≈ 11.1 µM) and an MIC50 [13] of 2 µg/mL (≈ 5.55 µM). For the same molecule, the MIC90 [13] was 3.4 µg/mL (≈ 9.43 µM), the MIC50 [14] was 4.52 µg/mL (≈ 12.5 µM) and the MIC90 [14] was 84.5 µg/mL (≈ 234 µM). The MIC90 [15] was 0.87 µg/mL (≈ 2.41 µM), the MIC90 ([16]; Enterococcus) was 128 µg/mL and the FICI [16, 22] was 0.5. The Interpretation [16, 22] was “Synergy (FICI of ≤0.5 will correspond to synergy)”, the FICI ([16]; Enterococcus sp. (2105), HN12b + PAβN) was 1 and the MIC50 [17] was under 0.25 µg/mL. The MIC90 [17] was 11.4 µg/mL (≈ 31.5 µM) and the “sensitisation of efflux deleted strains” value [18] was “more sensitised”.
